This passage reports Ki results from patent publication US9255101B2 (BIOPROJECT, priority 2012, dated 2016).

Where a name gives a salt, the structure may show the parent alone.
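Also: radioligand displacement of a [3H]-labelled ligand from membranes of CHO cells stably expressing human H4 receptor, bound radioactivity counted on filters by liquid scintillation.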

human H4 receptor, sequence (Q9H3N8 whole entry): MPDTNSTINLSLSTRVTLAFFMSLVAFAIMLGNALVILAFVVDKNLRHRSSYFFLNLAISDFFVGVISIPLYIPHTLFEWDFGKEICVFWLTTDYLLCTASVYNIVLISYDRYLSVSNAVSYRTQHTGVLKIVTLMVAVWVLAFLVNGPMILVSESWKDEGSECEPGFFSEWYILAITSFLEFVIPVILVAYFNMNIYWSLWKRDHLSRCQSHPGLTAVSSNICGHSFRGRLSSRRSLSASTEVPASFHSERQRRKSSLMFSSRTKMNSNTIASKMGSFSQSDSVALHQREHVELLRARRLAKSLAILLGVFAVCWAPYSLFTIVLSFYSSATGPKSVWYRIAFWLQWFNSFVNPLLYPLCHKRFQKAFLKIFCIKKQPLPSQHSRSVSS

This test addresses human H4 receptor (Homo sapiens, UniProt Q9H3N8). As to the kind of experiment: biochemical.
Consider `Cc1ccccc1-c1cn2c(n1)C(OC1CCN(C)CC1)c1ccccc1CC2` (stereo not drawn) [Example 8, 4-(1-methyl-piperidin-4-yloxy)-2-o-tolyl-9,10-dihydro-4H-3,10a-diaza-benzo[f]azulene], for which the Ki was less than 300 nM.
Compound `C=Cc1cn2c(n1)C(OC1CCN(C)CC1)c1ccccc1CC2` (stereo not drawn) [Example 9, 4-(1-methylpiperidin-4-yloxy)-2-vinyl-9,10-dihydro-4H-3,10a-diaza-benzo[f]azulene oxalate] gave an inhibitory constant (Ki) of less than 1000 nM.
`CCc1cn2c(n1)C(OC1CCN(C)CC1)c1ccccc1CC2` (stereo not drawn) [Example 13, 2-ethyl-4-(1-methylpiperidin-4-yloxy)-9,10-dihydro-4H-3,10a-diaza-benzo[f]azulene oxalate] yielded a Ki of less than 300 nM.
`CN1CCC(OC2c3ccccc3CCn3cc(-c4ccc(S(C)(=O)=O)cc4)nc32)CC1` (stereo not drawn) [Example 17, 2-(4-methanesulfonylphenyl)-4-(1-methylpiperidin-4-yloxy)-9,10-dihydro-4H-3,10a-diaza-benzo[f]azulene] displayed a Ki of less than 300 nM.
As for `CN1CCC(OC2c3ccccc3CCn3cc(-c4ccc(CO)cc4)nc32)CC1` (stereo not drawn) [Example 18, {4-[4-(1-methylpiperidin-4-yloxy)-9,10-dihydro-4H-3,10a-diaza-benzo[f]azulen-2-yl]-phenyl}-methanol], the Ki was less than 1000 nM.
Take `COCc1ccc(-c2cn3c(n2)C(OC2CCN(C)CC2)c2ccccc2CC3)cc1` (stereo not drawn) [Example 19, 2-(4-methoxymethylphenyl)-4-(1-methylpiperidin-4-yloxy)-9,10-dihydro-4H-3,10a-diaza-benzo[f]azulene oxalate]: the Ki is less than 300 nM.
Then `CN1CCC(OC2c3ccccc3CCn3cc(-c4ccccn4)nc32)CC1` (stereo not drawn) [Example 23, 4-(1-methylpiperidin-4-yloxy)-2-pyridin-2-yl-9,10-dihydro-4H-3,10a-diaza-benzo[f]azulene], with less than 1000 nM.
For the compound `CN1CCC(OC2c3ccccc3CCn3cc(-c4ccco4)nc32)CC1` (stereo not drawn) [Example 24, 2-furan-2-yl-4-(1-methylpiperidin-4-yloxy)-9,10-dihydro-4H-3,10a-diaza-benzo[f]azulene], the Ki is less than 300 nM.
`CC(C)Cc1ccc(-c2cn3c(n2)C(OC2CCN(C)CC2)c2ccccc2CC3)cc1` (stereo not drawn) [Example 28, 2-(4-isobutylphenyl)-4-(1-methylpiperidin-4-yloxy)-9,10-dihydro-4H-3,10a-diaza-benzo[f]azulene] had an inhibition constant (Ki) of less than 30 nM.
`CN1CCC(OC2c3ccccc3CCn3cc(-c4ccc(N(C)C)cc4)nc32)CC1` (stereo not drawn) [Example 35, dimethyl-{4-[4-(1-methylpiperidin-4-yloxy)-9,10-dihydro-4H-3,10a-diaza-benzo[f]azulen-2-yl]-phenyl}-amine oxalate] showed an inhibition constant Ki of less than 1000 nM.
Compound `Cc1ccc(-c2cn3c(n2)C(OC2CCN(C)CC2)c2ccccc2CC3)cn1` (stereo not drawn) [Example 39, 4-(1-methylpiperidin-4-yloxy)-2-(6-methylpyridin-3-yl)-9,10-dihydro-4H-3,10a-diaza-benzo[f]azulene oxalate] displayed a Ki of less than 1000 nM.
Consider `CN1CCC(OC2c3ccccc3CCn3cc(-c4ncco4)nc32)CC1` (stereo not drawn) [Example 40, 4-(1-methylpiperidin-4-yloxy)-2-oxazol-2-yl-9,10-dihydro-4H-3,10a-diaza-benzo[f]azulene oxalate], for which the Ki was less than 1000 nM.
Compound `CN1CCC(OC2c3ccccc3CCn3cc(-c4ccncc4)nc32)CC1` (stereo not drawn) [Example 44, 4-(1-methylpiperidin-4-yloxy)-2-pyridin-4-yl-9,10-dihydro-4H-3,10a-diaza-benzo[f]azulene oxalate] returned an inhibitory constant (Ki) of less than 1000 nM.
Compound `CN1CCC(OC2c3ccccc3CCn3cc(-c4cccnc4)nc32)CC1` (stereo not drawn) [Example 45, 4-(1-methylpiperidin-4-yloxy)-2-pyridin-3-yl-9,10-dihydro-4H-3,10a-diaza-benzo[f]azulene oxalate] returned a Ki of less than 1000 nM.
`CN1CCC(OC2c3ccccc3CCn3cc(-c4cncs4)nc32)CC1` (stereo not drawn) [Example 48, 4-(1-methylpiperidin-4-yloxy)-2-thiazol-5-yl-9,10-dihydro-4H-3,10a-diaza-benzo[f]azulene oxalate] yielded an inhibition constant (Ki) of less than 1000 nM.
The value for `Cc1ccc(-c2cn3c(n2)C(OC2CCN(C)CC2)c2ccccc2CC3)o1` (stereo not drawn) [Example 51, 2-(5-methylfuran-2-yl)-4-(1-methylpiperidin-4-yloxy)-9,10-dihydro-4H-3,10a-diaza-benzo[f]azulene oxalate] was less than 300 nM; that for `CN1CCC(OC2c3ccccc3CCn3cc(-c4ccc(Cl)cc4)nc32)CC1` (stereo not drawn) [Example 52, 2-(4-chloro-phenyl)-4-(1-methylpiperidin-4-yloxy)-9,10-dihydro-4H-3,10a-diaza-benzo[f]azulene oxalate] was less than 30 nM; that for `CN1CCC(OC2c3ccccc3CCn3cc(C=CC(=O)OC(C)(C)C)nc32)CC1` (stereo not drawn) [Example 53, 3-[4-(1-methylpiperidin-4-yloxy)-9,10-dihydro-4H-3,10a-diaza-benzo[f]azulen-2-yl]-acrylic acid tert-butyl ester oxalate] was less than 1000 nM.
As for `Cc1cc(C(F)(F)F)ccc1-c1cn2c(n1)C(OC1CCN(C)CC1)c1ccccc1CC2` (stereo not drawn) [Example 55, 4-(1-methylpiperidin-4-yloxy)-2-(2-methyl-4-trifluoromethyl-phenyl)-9,10-dihydro-4H-3,10a-diaza-benzo[f]azulene], the Ki was less than 300 nM.
The value for `CN1CCC(OC2c3ccccc3CCn3cc(C4=CCSCC4)nc32)CC1` (stereo not drawn) [Example 57, 2-(3,6-dihydro-2H-thiopyran-4-yl)-4-(1-methylpiperidin-4-yloxy)-9,10-dihydro-4H-3,10a-diaza-benzo[f]azulene] was less than 300 nM.
With `CN1CCC(OC2c3ccccc3CCn3cc(C=CC4CCCCC4)nc32)CC1` (stereo not drawn) [Example 59, 2-(2-cyclohexyl-vinyl)-4-(1-methylpiperidin-4-yloxy)-9,10-dihydro-4H-3,10a-diaza-benzo[f]azulene], the Ki is less than 300 nM.
`Cc1ccc(-c2cn3c(n2)C(OC2CCN(C)CC2)c2ccccc2CC3)c(C)c1` (stereo not drawn) [Example 61, 2-(2,4-dimethylphenyl)-4-(1-methylpiperidin-4-yloxy)-9,10-dihydro-4H-3,10a-diaza-benzo[f]azulene] registered an inhibition constant (Ki) of less than 300 nM.
Compound `CN1CCC(OC2c3ccccc3CCn3cc(-c4nccs4)nc32)CC1` (stereo not drawn) [Example 66, 4-(1-methylpiperidin-4-yloxy)-2-thiazol-2-yl-9,10-dihydro-4H-3,10a-diaza-benzo[f]azulene oxalate] returned an inhibitory constant (Ki) of less than 300 nM.
In turn, `CN1CCC(OC2c3ccccc3CCn3cc(-c4ccc(Cl)cc4Cl)nc32)CC1` (stereo not drawn) [Example 71, 2-(2,4-dichlorophenyl)-4-(1-methylpiperidin-4-yloxy)-9,10-dihydro-4H-3,10a-diaza-benzo[f]azulene oxalate] registered a Ki of less than 30 nM.
As to `CN1CCC(OC2c3ccccc3CCn3cc(Sc4ccccc4)nc32)CC1` (stereo not drawn) [Example 73, 4-(1-methylpiperidin-4-yloxy)-2-phenylsulfanyl-9,10-dihydro-4H-3,10a-diaza-benzo[f]azulene oxalate], the inhibitory constant (Ki) is less than 300 nM.
The value for `CN1CCC(OC2c3cccc(Cl)c3CCn3cc(I)nc32)CC1` (stereo not drawn) [Example 78, 8-chloro-2-iodo-4-(1-methylpiperidin-4-yloxy)-9,10-dihydro-4H-3,10a-diaza-benzo[f]azulene] was less than 300 nM; that for `CN1CCC(OC2c3ccccc3CCn3cc(-c4cccn4C)nc32)CC1` (stereo not drawn) [Example 83, 4-(1-methylpiperidin-4-yloxy)-2-(1-methyl-1H-pyrrol-2-yl)-9,10-dihydro-4H-3,10a-diaza-benzo[f]azulene] was less than 1000 nM; that for `CN1CCC(OC2c3ccccc3CCn3cc(SCCNC(=O)OC(C)(C)C)nc32)CC1` (stereo not drawn) [Example 84, {2-[4-(1-methylpiperidin-4-yloxy)-9,10-dihydro-4H-3,10a-diaza-benzo[f]azulen-2-ylsulfanyl]-ethyl}-carbamic acid tert-butyl ester oxalate] was less than 300 nM.
In the case of `CN1CCC(OC2c3ccccc3CCn3cc(SCc4ccco4)nc32)CC1` (stereo not drawn) [Example 85, 2-(furan-2-ylmethylsulfanyl)-4-(1-methylpiperidin-4-yloxy)-9,10-dihydro-4H-3,10a-diaza-benzo[f]azulene oxalate], the Ki is less than 300 nM.
On to `CN1CCC(OC2c3ccccc3CCn3cc(C=CCCCc4ccccc4)nc32)CC1` (stereo not drawn) [Example 89, 4-(1-methylpiperidin-4-yloxy)-2-(5-phenylpent-1-enyl)-9,10-dihydro-4H-3,10a-diaza-benzo[f]azulene], for which the inhibition constant Ki is less than 30 nM.
For `CN1CCC(OC2c3cccc(Cl)c3CCn3cc(-c4ccccc4)nc32)CC1` (stereo not drawn) [Example 91, 8-chloro-4-(1-methylpiperidin-4-yloxy)-2-phenyl-9,10-dihydro-4H-3,10a-diaza-benzo[f]azulene], the Ki is less than 300 nM.
Turning to `CN1CCC(OC2c3cccc(-c4ccccc4)c3CCn3cc(-c4ccccc4)nc32)CC1` (stereo not drawn) [Example 92, 4-(1-methylpiperidin-4-yloxy)-2,8-diphenyl-9,10-dihydro-4H-3,10a-diaza-benzo[f]azulene], the inhibition constant Ki was less than 300 nM.
Consider `CN1CCC(OC2c3ccccc3CCn3cc(CCC4CCCCC4)nc32)CC1` (stereo not drawn) [Example 95, 2-(2-cyclohexylethyl)-4-(1-methylpiperidin-4-yloxy)-9,10-dihydro-4H-3,10a-diaza-benzo[f]azulene oxalate], for which the Ki is less than 30 nM.
As to `CN1CCC(OC2c3ccccc3CCn3cc(SC4CCCCC4)nc32)CC1` (stereo not drawn) [Example 98, 2-cyclohexylsulfanyl-4-(1-methylpiperidin-4-yloxy)-9,10-dihydro-4H-3,10a-diaza-benzo[f]azulene oxalate], the Ki was less than 300 nM.
`CNc1ccc(-c2cn3c(n2)C(OC2CCN(C)CC2)c2ccccc2CC3)cc1` (stereo not drawn) [Example 100, methyl-{4-[4-(1-methylpiperidin-4-yloxy)-9,10-dihydro-4H-3,10a-diaza-benzo[f]azulen-2-yl]-phenyl}-amine oxalate] yielded a Ki of less than 1000 nM.
`CN1CCC(OC2c3ccccc3CCn3cc(-c4ccc(N(C)C(=O)C(C)(C)C)cc4)nc32)CC1` (stereo not drawn) [Example 101, 2,2,N-trimethyl-N-{4-[4-(1-methylpiperidin-4-yloxy)-9,10-dihydro-4H-3,10a-diaza-benzo[f]azulen-2-yl]-phenyl}-propionamide oxalate] came in with a Ki of less than 300 nM.

The Ki is the equilibrium dissociation constant of an inhibitor or competing ligand from its target. A higher Ki goes with weaker binding.
